According to EPA's ToxValDB 9.5:
Where “and” joins values, the source holds several entries; their conditions need not be identical. Equal entries are not always repeated. Structures can show the parent of a compound that is named as a salt. Blank lines part the entries; values can stand above or below the compound they belong to.

Key:
Cricetulus sp. = details: duration: 5 days, oral, gavage, Hamster
Mus musculus [1] = details: acute; oral
Oryctolagus sp. [2] = test system: Oryctolagus sp.
Rattus norvegicus [3] = details: for LD50 / LC50: acute
Gallus sp. = details: subchronic; duration: 90 days; oral; F; neurotoxicity
Canidae [4] = details: oral, diet, M/F, Dog Other
Canidae [5] = details: chronic; duration: 2 years; oral; diet; Dog Other; Small intestine: Increased weight + Stomach: Increased weight
Mus musculus [6] = details: uterotrophic; duration: 3 days; injection; subcutaneous; Active
Rattus norvegicus [7] = details: for LEL: uterotrophic, Active
Homo sapiens [8] = details: clinical, oral
Canidae [9] = details: subchronic, duration: 90 days, oral, M/F, Beagle, neurological
Rattus norvegicus [10] = details: oral; for LOEL / NOEL: duration: 2 years, M/F, Crl, Reduced bodyweight gain
Rattus norvegicus [11] = assay: LC100; higher = less toxic; details: acute; inhalation
Homo sapiens [12] = details: clinical; duration: 1 days; inhalation; nose only; unknown; respiratory
Coturnix japonica = details: repeat dose other; oral
Rattus norvegicus [13] = details: repeat dose other; oral
Neovison sp. = details: repeat dose other; oral; Mink
Rattus norvegicus [14] = details: subchronic, M/F, autoimmune effects (autoimmune glomerulonephritis)
Rattus norvegicus [15] = details: short-term; duration: 28 days; oral; gavage; unknown; Wistar; renal
Oryctolagus sp. [16] = assay: LD0; higher = less toxic; details: acute; dermal; New Zealand
Cavia porcellus = details: acute, Guinea Pig
Mus musculus [17] = details: subchronic; oral; M/F; kidney effects (renal tubular pathology, reduced kidney weight)
Mus musculus [18] = details: subchronic; duration: 13 weeks; oral; gavage; M/F; CD1; Urinary
Homo sapiens [19] = details: clinical; oral; M; Restoration normal sexual desire, erection, ejaculation, and general well-being
Canidae [20] = details: oral, capsule, M/F, Histopathological changes in the spleen and bone marrow indicative of anaemia
Homo sapiens [21] = details: clinical; oral; Hematologic
Homo sapiens [22] = details: clinical; oral; Blood: Increased prothrombin time
[23] = chronic, duration: 2 years, increased absolute and relative weight of stomach and small intestine
[24] = Hershberger, duration: 10 days, oral, gavage, Sprague-Dawley, active + Androgenic + Negative + androgenic
[25] = duration: 3 days, injection, subcutaneous
[26] = subchronic, duration: 90 days, inhibition of brain cholinesterase
[27] = M, plasma cholinesterase inhibition
[28] = short-term, duration: 28 days, dermal, occlusive, New Zealand
[29] = subchronic, duration: 90 days, inhalation, Sprague-Dawley

Structure (SMILES): COC(=O)CCSCCC(=O)OC [Dimethyl 3,3'-thiodipropionate]
- NOAEL (Cricetulus sp.; developmental): 1600 mg/kg-day
- NOAEL (Cricetulus sp.; reproduction developmental, F): 1600 mg/kg-day
- LD50 (Mus musculus [1]): > 2000 mg/kg
- NOAEL (Oryctolagus sp. [2]; developmental, duration: 13 days, oral, gavage, Dutch-belted): 1000 mg/kg-day
- LD50 (Rattus norvegicus [3]; oral): > 2500 mg/kg
- NOAEL (Rattus norvegicus [3]; reproduction developmental, duration: 13 weeks, oral, gavage, Sprague-Dawley): 350 mg/kg-day
- NOAEL (Rattus norvegicus [3]; reproduction developmental, duration: 10 days, oral, gavage, F, Wistar): 1600 mg/kg-day
- NOAEL (Rattus norvegicus [3]; subchronic, duration: 13 weeks, oral, gavage, Sprague-Dawley): 350 mg/kg-day

Structure (SMILES): CCOP(=S)(Oc1ccc([N+](=O)[O-])cc1)c1ccccc1 (stereo unspecified) [EPN]
- LEL (Gallus sp.): 0.1 mg/kg-day
- NOEL (Gallus sp.): 0.01 mg/kg-day

Structure (SMILES): O=C(O)[C@@H]1[C@H](C(=O)O)[C@H]2CC[C@@H]1O2 [Endothal]
- LEL (Canidae [4]; [23]): 6 mg/kg-day
- NOEL (Canidae [4]; [23]): 2 mg/kg-day
- NOEL (Canidae [5]): 2 mg/kg-day

- LEL (gamma) (Mus musculus [6]): 1 and 3
- LEL (Rattus norvegicus [7]; [25]): 2 mg/kg-day
- LEL (Rattus norvegicus [7]; duration: 7 days, injection, subcutaneous): 0.00025 mg/day
Structure (SMILES): C[C@]12CC[C@H]3C(=CCc4cc(O)ccc43)[C@@H]1CCC2=O [Equilin]
- LOEL (Rattus norvegicus [7]; [24]): 2 mg/kg-day
- NOEL (Rattus norvegicus [7]; [24]): 0.5 mg/kg-day

Structure (SMILES): CCOP(=S)(OCC)SCSP(=S)(OCC)OCC [Ethion]
- LEL (Canidae [4]; [26]): 0.71 mg/kg-day
- NOEL (Canidae [4]; [26]): 0.06 mg/kg-day
- LEL (Homo sapiens [8]; [27]): 0.075 mg/kg-day
- NOEL (Homo sapiens [8]; [27]): 0.05 mg/kg-day
- NOAEL (Canidae [9]): 0.06 mg/kg-day
- NOAEL (Canidae [9]; diet): 0.06 mg/kg-day
- NOAEL (Rattus norvegicus [10]; developmental, gavage, Embryotoxic effects): 0.2 mg/kg-day

Structure (SMILES): CCOS(=O)(=O)OCC [Ethyl sulfate (Et2SO4)]
- LD50 (Oryctolagus sp. [2]; acute, dermal): 706 mg/kg
- LC50 (Rattus norvegicus [3]; inhalation): ≥ 1580 mg/m3 and ≤ 3150 mg/m3
- LD50 (Rattus norvegicus [3]; injection, subcutaneous): 350 mg/kg
- LD50 (Rattus norvegicus [3]; oral): 880 mg/kg
- LC100 (Rattus norvegicus [11]): 3150 mg/m3

Structure (SMILES): FF [Fluorine]
- NOAEL (Homo sapiens [12]): 15.5 mg/m3

Structure (SMILES): [Mn+2].[Mn+3].[Mn+3].[O-2].[O-2].[O-2].[O-2] [Manganese oxide (Mn3O4)]
- NOAEL (Coturnix japonica): 997 mg/kg-day
- LOAEL (Rattus norvegicus [13]): 284 mg/kg-day
- NOAEL (Rattus norvegicus [13]): 88 mg/kg-day

Structure (SMILES): [Cl][Hg][Cl] [Mercuric chloride]
- LOAEL (Coturnix japonica): 0.9 mg/kg-day
- NOAEL (Coturnix japonica): 0.45 mg/kg-day
- NOAEL (Neovison sp.): 1 mg/kg-day
- LOAEL (Rattus norvegicus [14]; injection, subcutaneous): 0.226 mg/kg-day
- LOAEL (Rattus norvegicus [14]; oral, diet): 0.317 mg/kg-day and 0.633 mg/kg-day
- LOAEL (Rattus norvegicus [15]): 0.015 mg/kg-day
- LEL (Rattus norvegicus [7]; duration: 3 days, injection, intraperitoneal): 1 mg/kg-day

Structure (SMILES): CSSC [Methyl disulfide]
- LOAEL (Oryctolagus sp. [2]; [28]): 106 mg/kg-day
- NOAEL (Oryctolagus sp. [2]; [28]): 10.6 mg/kg-day
- LC50 (Rattus norvegicus [3]; inhalation, Sprague-Dawley): 3100 mg/m3
- LD50 (Rattus norvegicus [3]; oral, gavage, Sprague-Dawley): ≥ 290 mg/kg and ≤ 500 mg/kg
- LD50 (Rattus norvegicus [3]; oral, gavage, Wistar): 190 mg/kg
- NOAEL (Rattus norvegicus [3]; developmental, duration: 10 days, inhalation, Crl:CD(SD) BR): 57.8 mg/m3
- NOAEL (Rattus norvegicus [3]; reproduction developmental, duration: 10 days, inhalation, F, Crl:CD(SD) BR): < 38.5 mg/m3
- LOAEL (Rattus norvegicus [3]; [29]): 193 mg/m3
- NOAEL (Rattus norvegicus [3]; [29]): 38.5 mg/m3
- LD0 (Oryctolagus sp. [16]): ≥ 2000 mg/kg

Structure (SMILES): CCCCCCCC/C=C\CCCCCCCC(=O)O [Oleic acid]
- LD50 (Cavia porcellus; dermal): > 3000 mg/kg

Structure (SMILES): c1cc2ccc3cccc4ccc(c1)c2c34 [Pyrene]
- LOAEL (Mus musculus [17]): 125 mg/kg-day
- NOAEL (Mus musculus [17]): 75 mg/kg-day
- NOAEL (Mus musculus [18]): 75 mg/kg-day

Structure (SMILES): C[C@]12CC[C@H]3[C@@H](CCC4=CC(=O)CC[C@@]43C)[C@@H]1CC[C@@H]2O [Testosterone]
- NOEL (Rattus norvegicus [7]; Hershberger, duration: 7 days, injection, subcutaneous, Sprague-Dawley, active + Androgenic + androgenic): 0.1 mg/kg-day
- LEL (Rattus norvegicus [7]; [25]): 0.2 mg/day
- NOEL (Homo sapiens [19]): 1.7 mg/kg-day

Structure (SMILES): O=C1OC(=O)C2CC=CCC12 (stereo unspecified) [Tetrahydrophthalic anhydride]
- LD50 (Cavia porcellus; oral): 3500 mg/kg
- LD50 (Mus musculus [1]): 3300 mg/kg

Structure (SMILES): c1ccc2[nH]c(-c3cscn3)nc2c1 [Thiabendazole]
- NOEL (Canidae [20]; chronic, duration: 1 years, Beagle): 10 mg/kg-day
- NOEL (Canidae [20]; chronic, duration: 1 years, Dog Other): 10 mg/kg-day
- NOEL (Canidae [20]; duration: 1 year, Beagle): 10 mg/kg-day
- NOEL (Canidae [20]; duration: 1 year, Dog Other): 10 mg/kg-day
- LOEL (Rattus norvegicus [10]; chronic, diet): 40 mg/kg-day
- NOEL (Rattus norvegicus [10]; chronic, diet): 10 mg/kg-day
- LOEL (Rattus norvegicus [10]; feed): 40 mg/kg-day
- NOEL (Rattus norvegicus [10]; feed): 10 mg/kg-day

Structure (SMILES): O=[N+]([O-])OCC(CO[N+](=O)[O-])O[N+](=O)[O-] [Trinitroglycerin]
- LOAEL (Homo sapiens [21]): 0.036 mg/kg-day

Structure (SMILES): CC(=O)CC(c1ccccc1)c1c(O)c2ccccc2oc1=O (stereo unspecified) [Warfarin]
- LOAEL (Homo sapiens [8]; M/F, increased prothrombin time): 0.029 mg/kg-day
- LOAEL (Homo sapiens [22]): 2 mg/day
